Results: patent US10618935B2, “Antibody-drug conjugate (ADC) and method for forming the same” (Industrial Technology Research Institute, priority 2015, dated 2020)
Square brackets hold non-standard residues; d marks the D form. Peptide text beside a SMILES is read from it. * marks the point of attachment. Dolaproine = CO[C@@H]([C@@H]1CCCN1)[C@@H](C)C(=O)O; Dil = CC[C@H](C)[C@H](NC)[C@@H](CC(=O)O)OC; X2 = C[C@@H](N*)[C@@H](O)c1ccccc1; NMeV = CN[C@H](C(=O)O)C(C)C

Experiments:
FaDu cells = experiment: Tumor growth inhibition test, FaDu subcutaneous tumor in C.B-17 SCID mice; type: in vivo; conditions: Day 8-29; 0.1 mg/kg intravenously once at Day 8; n=6
Experimental: (§1) 1×10^6 of FaDu cells were subcutaneous injected to C.B-17 SCID mice at Day 0. The length and width of the tumor were measured and the tumor size was calculated by (length×width×width×½) (mm^3) and recorded. […] Tumor growth and body weight of the mice were observed twice every week.

[1] = Body weight and clinical symptoms in the tumor growth inhibition test; conditions: FIG. 20
Experimental: as §1

Structure (SMILES)	TGI (%) ± SEM (FaDu cells) [%]	weight loss or abnormal clinical symptoms after drug administration [1]
CC[C@H](C)C([C@@H](CC(=O)N1CCC[C@H]1[C@H](OC)[C@@H](C)C(=O)NC(Cc1ccccc1)C(=O)NCCc1ccc(N)cc1)OC)N(C)C(=O)C(NC(=O)[C@H](C(C)C)N(C)C)C(C)C (stereo partly shown) [APEA-AF]	11 ± 17	no weight losing or other significant abnormal clinical symptoms occurred
CC[C@H](C)[C@@H]([C@@H](CC(=O)N1CCC[C@H]1[C@H](OC)[C@@H](C)C(=O)N[C@H](C)[C@@H](O)c1ccccc1)OC)N(C)C(=O)[C@@H](NC(=O)[C@@H](NC)C(C)C)C(C)C [MMAE] (H-[NMeV]V[Dil][Dolaproine]-X2)	12 ± 6	no weight losing or other significant abnormal clinical symptoms occurred
